According to ChEMBL document CHEMBL1158934, “Anthelmintic polyfunctional nitrogen-containing terpenoids from marine sponges” (J Nat Prod, 1991):
Activity calls are given as the source filed them. No cut-off for these calls is given here.

Tests used:
Assay type in all cases: functional, organism-based
[1] = tested on: Nippostrongylus brasiliensis; test: Antimicrobial activity against Nippostrongylus brasiliensis
Staphylococcus aureus = test: Antimicrobial activity against Staphylococcus aureus
Candida albicans = test: Antimicrobial activity against Candida albicans
[2] = tested on: Trichophyton mentagrophytes; test: Antimicrobial activity against Trichophyton mentagrophytes

SMILES	Activity [1]	Activity (Staphylococcus aureus)	Activity (Candida albicans)	Activity [2]
CC1=CC2=C(C(C)C)CC[C@](C)(N=C=S)[C@@H]2CC1	inactive			
[C-]#[N+][C@@H]1[C@H](C(C)C)CC[C@@H](C)[C@@]12C=C(C)CC2	inactive	Active	Active	Active
CC1=C[C@H]2[C@@H](CC1)[C@@](C)(N=S)CC[C@H]2C(C)C	inactive			
CC1(C)O[C@@](C)([C@H]2CC[C@@](C)(N=C=S)[C@H]3CC[C@@](C)(O)[C@H](NC=O)[C@@H]32)CC[C@@H]1Cl	inactive			
[C-]#[N+][C@@H]1[C@H]2[C@H](CC[C@@]1(C)O)[C@](C)(N=C=S)CC[C@@H]2[C@@]1(C)CC[C@H](Cl)C(C)(C)O1	Active	Active	Active	Active
[C-]#[N+][C@@H]1[C@H]2[C@H](CC[C@@]1(C)O)C(=C)CC[C@@H]2[C@@]1(C)CC[C@H](Cl)C(C)(C)O1	inactive			
CC1=CC[C@@H](C(C)C)[C@H]2C[C@@](C)(N=C=S)CC[C@@H]12 (relative stereo)	inactive			
